Laboratory results taken from ChEMBL document CHEMBL1201862, “PubChem BioAssay data set” (2004).
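The compound was tested at five concentrations on cells cultured in 96-well plates, with a 48-hour exposure period. At the GI50, growth is halved.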 Activity calls are given as the source filed them. No stated cut-off is given here; in the data, active = GI50 up to about 1.1 µM and inactive = higher.

Legend:
Assay in all cases: NCI-60 cell line screen, 48 h
786-0 = tested on: 786-0
A549 = tested on: A549
BT-549 = tested on: BT-549
CCRF-CEM = tested on: CCRF-CEM
DU-145 = tested on: DU-145
EKVX = tested on: EKVX
HCT-15 = tested on: HCT-15
HT-29 = tested on: HT-29
KM12 = tested on: KM12
MCF7 = tested on: MCF7
NCI-H460 = tested on: NCI-H460
OVCAR-3 = tested on: OVCAR-3
RPMI-8226 = tested on: RPMI-8226
SF-539 = tested on: SF-539
SR = tested on: SR
SW-620 = tested on: SW-620
TK-10 = tested on: TK-10
UACC-257 = tested on: UACC-257
DLD-1 = tested on: DLD-1
DMS-273 = tested on: DMS-273

Compound | GI50 (786-0) | GI50 (A549) | GI50 (BT-549) | GI50 (CCRF-CEM) | GI50 (DU-145) | GI50 (EKVX) | GI50 (HCT-15) | GI50 (HT-29) | GI50 (KM12) | GI50 (MCF7) | GI50 (NCI-H460) | GI50 (OVCAR-3) | GI50 (RPMI-8226) | GI50 (SF-539) | GI50 (SR) | GI50 (SW-620) | GI50 (TK-10) | GI50 (UACC-257) | GI50 (DLD-1) | GI50 (DMS-273)
CN(C)CCNC(=O)c1cccc2[nH]c(-c3ccncc3)nc12 | 2.04 µM (inactive) | 5.78 µM (inactive) | 11.4 µM (inactive) | 2.29 µM (inactive) | 7.76 µM (inactive) | 12.4 µM (inactive) | 2.89 µM | 2.61 µM (inactive) | 4.17 µM (inactive) | 3.44 µM (inactive) | 2.78 µM (inactive) | 9.62 µM (inactive) | 3 µM (inactive) | 2.65 µM (inactive) | 3.38 µM (inactive) | 3.19 µM (inactive) | 6.5 µM (inactive) | 1.83 µM (inactive) |  | 
COc1cc(S(=O)(=O)Nc2ccc(-c3csc(N4C(=O)C(Cl)C4c4ccccc4)n3)cc2)ccc1Cl (stereo not given) | 19.2 µM (inactive) | > 100 µM (inactive) | 26.9 µM (inactive) | 3.37 µM (inactive) | 16 µM (inactive) | 31.9 µM (inactive) | > 100 µM | > 100 µM (inactive) | 44.2 µM (inactive) | 27.1 µM (inactive) | < 0.01 µM (active) | > 100 µM (inactive) | 31.4 µM (inactive) | 32.7 µM (inactive) | 3.06 µM (inactive) | 50.4 µM (inactive) | > 100 µM (inactive) | 8.45 µM (inactive) |  | 
CCOc1ccccc1/C=C(/C#N)C(N)=O | > 100 µM (inactive) | > 100 µM (inactive) | > 100 µM (inactive) | 10.3 µM (inactive) | > 100 µM (inactive) | > 100 µM (inactive) | 59 µM | > 100 µM (inactive) | > 100 µM (inactive) | 41.7 µM (inactive) | > 100 µM (inactive) | > 100 µM (inactive) | > 100 µM (inactive) | 70.6 µM (inactive) | 23.9 µM (inactive) | 60 µM (inactive) | > 100 µM (inactive) | > 100 µM (inactive) |  | 
CC1(C)OCC(C(O)C2OC(C)(C)OC2/C=N\O)O1 (stereo not given) | > 100 µM (inactive) | > 100 µM (inactive) |  | > 100 µM (inactive) |  | > 100 µM (inactive) |  | > 100 µM (inactive) | > 100 µM (inactive) |  | > 100 µM (inactive) | > 100 µM (inactive) | > 100 µM (inactive) | > 100 µM (inactive) |  | > 100 µM (inactive) | > 100 µM (inactive) | > 100 µM (inactive) | > 100 µM (inactive) | > 100 µM (inactive)
CCOC(=O)CCn1[nH]c(=O)c(Cl)c(Cl)c1=O | > 100 µM (inactive) | > 100 µM (inactive) |  | > 100 µM (inactive) |  | > 100 µM (inactive) | > 100 µM | > 100 µM (inactive) |  |  | > 100 µM (inactive) | > 100 µM (inactive) |  |  |  | > 100 µM (inactive) | > 100 µM (inactive) | > 100 µM (inactive) | > 100 µM (inactive) | > 100 µM (inactive)
Cc1ccc2c(c1C)C(=O)C1(Cc3cc4c(cc3C1=O)CCC4)C2 (stereo not given) | > 100 µM (inactive) | > 100 µM (inactive) | > 100 µM (inactive) | > 100 µM (inactive) | > 100 µM (inactive) | > 100 µM (inactive) | > 100 µM | > 100 µM (inactive) | > 100 µM (inactive) | > 100 µM (inactive) | > 100 µM (inactive) | 87.9 µM (inactive) | > 100 µM (inactive) | 0.726 µM (active) | > 100 µM (inactive) | > 100 µM (inactive) | > 100 µM (inactive) | > 100 µM (inactive) |  | 
CC(O)C1CC1(CO)CNc1cc(Cl)nc(N)n1 (stereo not given) | > 100 µM (inactive) | > 100 µM (inactive) | > 100 µM (inactive) | > 100 µM (inactive) | > 100 µM (inactive) | > 100 µM (inactive) | > 100 µM | > 100 µM (inactive) | > 100 µM (inactive) | > 100 µM (inactive) | > 100 µM (inactive) | > 100 µM (inactive) | > 100 µM (inactive) | > 100 µM (inactive) | > 100 µM (inactive) | > 100 µM (inactive) | > 100 µM (inactive) | > 100 µM (inactive) |  | 
O=S(=O)(CC(O)C(Cl)(Cl)Cl)NNc1ccccc1 (stereo not given) | > 100 µM (inactive) | > 100 µM (inactive) | > 100 µM (inactive) | > 100 µM (inactive) | > 100 µM (inactive) | > 100 µM (inactive) | 72.1 µM | > 100 µM (inactive) | > 100 µM (inactive) | > 100 µM (inactive) | 75.3 µM (inactive) | > 100 µM (inactive) | > 100 µM (inactive) | > 100 µM (inactive) | > 100 µM (inactive) | > 100 µM (inactive) | > 100 µM (inactive) | > 100 µM (inactive) |  | 
CCCCCCCCCCCCCCC(O)C1CCC(C(O)CCC(O)CCCCCC(O)CC2=CC(C)OC2=O)O1 (stereo not given) | 2.43 µM (inactive) | 2.2 µM (inactive) |  | 1.29 µM (inactive) |  | 1.93 µM (inactive) | 1.29 µM | 1.82 µM (inactive) |  |  | 1.79 µM (inactive) | 1.13 µM (inactive) | 0.187 µM (active) | 1.3 µM (inactive) |  | 2.52 µM (inactive) | 4.27 µM (inactive) | 0.18 µM (active) | 2.31 µM (inactive) | 1.4 µM (inactive)
CC(C)(CN1CCCCC1)C(=O)/C=C/c1ccccc1 | 13.6 µM (inactive) | 16.9 µM (inactive) |  | 5.93 µM (inactive) |  | 7.13 µM (inactive) | 13.1 µM | 7.36 µM (inactive) | 9.25 µM (inactive) |  | 22.4 µM (inactive) | 6.07 µM (inactive) | 14.7 µM (inactive) | 10.8 µM (inactive) |  | 11.6 µM (inactive) | 16.3 µM (inactive) | 14.5 µM (inactive) | 13.7 µM (inactive) | 13.5 µM (inactive)
CC(C)(C)c1ccc(O)c(Br)c1 | > 100 µM (inactive) | > 100 µM (inactive) | > 100 µM (inactive) | > 100 µM (inactive) | > 100 µM (inactive) | > 100 µM (inactive) | > 100 µM | > 100 µM (inactive) | 63.5 µM (inactive) | > 100 µM (inactive) | > 100 µM (inactive) | > 100 µM (inactive) | > 100 µM (inactive) | > 100 µM (inactive) | 37.3 µM (inactive) | > 100 µM (inactive) | > 100 µM (inactive) | 26.2 µM (inactive) |  | 
O=C(C/C(CCC(=O)N(Cc1ccccc1)Cc1ccccc1)=N/Nc1ccc([N+](=O)[O-])cc1[N+](=O)[O-])c1ccccc1 | > 100 µM (inactive) | 86.1 µM (inactive) |  | 35.9 µM (inactive) |  | > 100 µM (inactive) | 40.5 µM | 54.1 µM (inactive) | 77.1 µM (inactive) |  | 92.9 µM (inactive) | > 100 µM (inactive) | 81.1 µM (inactive) | 54 µM (inactive) |  | 45.2 µM (inactive) | > 100 µM (inactive) | > 100 µM (inactive) | 49.9 µM (inactive) | > 100 µM (inactive)
OCC1=CC(NC2CC(CO)C(O)C(O)C2O)C(O)C(O)C1O (stereo not given) | > 100 µM (inactive) | > 100 µM (inactive) |  | > 100 µM (inactive) |  | > 100 µM (inactive) | > 100 µM | > 100 µM (inactive) | > 100 µM (inactive) |  | > 100 µM (inactive) | > 100 µM (inactive) | > 100 µM (inactive) | > 100 µM (inactive) |  | > 100 µM (inactive) | > 100 µM (inactive) | > 100 µM (inactive) | > 100 µM (inactive) | > 100 µM (inactive)
O=C(C#Cc1cnc(O)nc1O)c1ccccc1Cl | 18 µM (inactive) | 79.1 µM (inactive) |  | 3.94 µM (inactive) |  | 20 µM (inactive) | 15 µM | 36.4 µM (inactive) | 29.6 µM (inactive) |  | 24.3 µM (inactive) | 14.2 µM (inactive) | 23.9 µM (inactive) | 16.3 µM (inactive) |  | 14.2 µM (inactive) | 21.6 µM (inactive) | 14.7 µM (inactive) | 15.5 µM (inactive) | 19.1 µM (inactive)
CN(C)CCNc1ccc2nnn3c4ccc(O)cc4c(=O)c1c23 | 2.15 µM (inactive) | 0.598 µM (active) | 15.2 µM (inactive) | 1.11 µM (active) | 6.31 µM (inactive) | 3.13 µM (inactive) | 1.29 µM | 4.28 µM (inactive) | 2.32 µM (inactive) | 2.44 µM (inactive) | 0.498 µM (active) | 5.73 µM (inactive) | 2.06 µM (inactive) | 3.95 µM (inactive) | 0.18 µM (active) | 1.09 µM (active) | 5.12 µM (inactive) | 9.71 µM (inactive) | 3.4 µM (inactive) | 
CC(C)=CCC[C@](C)(O)[C@H]1CC[C@]2(C)[C@@H]1[C@H](O)C[C@@H]1[C@@]3(C)CC[C@H](O[C@@H]4O[C@H](CO)[C@@H](O)[C@H](O)[C@H]4O)C(C)(C)[C@@H]3CC[C@]12C [GINSENOSIDE RH2] | 20.2 µM (inactive) | 18.8 µM (inactive) | 18 µM (inactive) | 23.5 µM (inactive) | 19.5 µM (inactive) | 22.7 µM (inactive) | 17.5 µM | 15.5 µM (inactive) | 17.6 µM (inactive) | 17.3 µM (inactive) | 16.6 µM (inactive) | 17.9 µM (inactive) | 19.1 µM (inactive) | 22.2 µM (inactive) | 14 µM (inactive) | 19.5 µM (inactive) | 21.4 µM (inactive) | 20.9 µM (inactive) |  | 
